Tests used:
Format in all cases: physicochemical
[1] = Stability of cannabinoid entourage and Vitamin E components of the powder concentrate by LCMSMS; details: for Stability of Plant-Derived Cannabinoid Compounds in Powder Concentrate: powder stored at 21-25° C.
Description: At each time period, 0.05 g of powder was dissolved in 10 ml-15 of ethanol, diluted to fall within the analytical range, and injected into the LCMSMS for analysis.

[2] = Stability of cannabinoid compounds and Vitamin E components in Beverage 2 (AB Red) by LCMSMS; details: monitored 570 days
[3] = Stability of cannabinoid compounds and Vitamin E components in Beverage 1 (AB White) by LCMSMS; details: for storage time after which some slight degradation is shown: monitored 570 days
Description: The stability of the plant-derived cannabinoid compounds and Vitamin E components of the beverage stored 8° C. and at room temperature (21-25° C.) were monitored, over a period of 570 days via Liquid Chromatography-tandem Mass Spectrometry [LCMSMS, Agilent 6590, C18, 3×50 mm, 2.7 m (Agilent InfinityLab Poroshell 120 EC-C18), Electrospray Ionization detector]. The LCMSMS was calibrated for 0-1000 ng/ml cannabinoids with the same resin material used in the preparation of the concentrates. At each time period, 100 ml of beverage was diluted with 10 ml of methanol and injected into the LCMSMS for analysis.

SMILES: C=C(C)[C@@H]1CCC(C)=C[C@H]1c1c(O)cc(CCCCC)cc1O [CBD, cannabidiol, reference compound]
- degradation over the entire period (in words) ([1]; powder concentrate stored at 21-25° C., 570 days): no significant degradation
- Stability of Plant-Derived Cannabinoid Compounds in Powder Concentrate ([1]; 0 days): 5.85 mg/g powder
- Stability of Plant-Derived Cannabinoid Compounds in Powder Concentrate ([1]; 1 days): 5.69 mg/g powder
- Stability of Plant-Derived Cannabinoid Compounds in Powder Concentrate ([1]; 2 days): 5.76 mg/g powder
- Stability of Plant-Derived Cannabinoid Compounds in Powder Concentrate ([1]; 3 days): 5.8 mg/g powder
- Stability of Plant-Derived Cannabinoid Compounds in Powder Concentrate ([1]; 5 days): 5.84 mg/g powder
- Stability of Plant-Derived Cannabinoid Compounds in Powder Concentrate ([1]; 8 days): 5.91 mg/g powder
- Stability of Plant-Derived Cannabinoid Compounds in Powder Concentrate ([1]; 9 days): 6.01 mg/g powder
- Stability of Plant-Derived Cannabinoid Compounds in Powder Concentrate ([1]; 10 days): 5.69 mg/g powder
- Stability of Plant-Derived Cannabinoid Compounds in Powder Concentrate ([1]; 11 days): 6.00 mg/g powder
- Stability of Plant-Derived Cannabinoid Compounds in Powder Concentrate ([1]; 12 days): 5.76 mg/g powder
- Stability of Plant-Derived Cannabinoid Compounds in Powder Concentrate ([1]; 15 days): 5.85 mg/g powder
- Stability of Plant-Derived Cannabinoid Compounds in Powder Concentrate ([1]; 16 days): 5.97 mg/g powder
- Stability of Plant-Derived Cannabinoid Compounds in Powder Concentrate ([1]; 17 days): 5.97 mg/g powder
- Stability of Plant-Derived Cannabinoid Compounds in Powder Concentrate ([1]; 18 days): 6.01 mg/g powder
- Stability of Plant-Derived Cannabinoid Compounds in Powder Concentrate ([1]; 19 days): 5.74 mg/g powder
- Stability of Plant-Derived Cannabinoid Compounds in Powder Concentrate ([1]; 22 days): 5.84 mg/g powder
- Stability of Plant-Derived Cannabinoid Compounds in Powder Concentrate ([1]; 23 days): 6.10 mg/g powder
- Stability of Plant-Derived Cannabinoid Compounds in Powder Concentrate ([1]; 24 days): 5.89 mg/g powder
- Stability of Plant-Derived Cannabinoid Compounds in Powder Concentrate ([1]; 25 days): 6.01 mg/g powder
- Stability of Plant-Derived Cannabinoid Compounds in Powder Concentrate ([1]; 26 days): 6.00 mg/g powder
- Stability of Plant-Derived Cannabinoid Compounds in Powder Concentrate ([1]; 29 days): 5.97 mg/g powder
- Stability of Plant-Derived Cannabinoid Compounds in Powder Concentrate ([1]; 30 days): 5.94 mg/g powder
- Stability of Plant-Derived Cannabinoid Compounds in Powder Concentrate ([1]; 60 days): 5.66 mg/g powder
- Stability of Plant-Derived Cannabinoid Compounds in Powder Concentrate ([1]; 90 days): 6.00 mg/g powder
- Stability of Plant-Derived Cannabinoid Compounds in Powder Concentrate ([1]; 120 days): 5.80 mg/g powder
- Stability of Plant-Derived Cannabinoid Compounds in Powder Concentrate ([1]; 150 days): 5.65 mg/g powder
- Stability of Plant-Derived Cannabinoid Compounds in Powder Concentrate ([1]; 180 days): 5.93 mg/g powder
- Stability of Plant-Derived Cannabinoid Compounds in Powder Concentrate ([1]; 210 days): 5.83 mg/g powder
- Stability of Plant-Derived Cannabinoid Compounds in Powder Concentrate ([1]; 240 days): 5.98 mg/g powder
- Stability of Plant-Derived Cannabinoid Compounds in Powder Concentrate ([1]; 270 days): 5.72 mg/g powder
- Stability of Plant-Derived Cannabinoid Compounds in Powder Concentrate ([1]; 300 days): 5.84 mg/g powder
- Stability of Plant-Derived Cannabinoid Compounds in Powder Concentrate ([1]; 330 days): 6.01 mg/g powder
- Stability of Plant-Derived Cannabinoid Compounds in Powder Concentrate ([1]; 360 days): 5.97 mg/g powder
- Stability of Plant-Derived Cannabinoid Compounds in Powder Concentrate ([1]; 390 days): 5.93 mg/g powder
- Stability of Plant-Derived Cannabinoid Compounds in Powder Concentrate ([1]; 420 days): 5.94 mg/g powder
- Stability of Plant-Derived Cannabinoid Compounds in Powder Concentrate ([1]; 450 days): 5.65 mg/g powder
- Stability of Plant-Derived Cannabinoid Compounds in Powder Concentrate ([1]; 480 days): 5.66 mg/g powder
- Stability of Plant-Derived Cannabinoid Compounds in Powder Concentrate ([1]; 510 days): 6.01 mg/g powder
- Stability of Plant-Derived Cannabinoid Compounds in Powder Concentrate ([1]; 540 days): 5.81 mg/g powder
- Stability of Plant-Derived Cannabinoid Compounds in Powder Concentrate ([1]; 570 days): 5.85 mg/g powder
- storage time after which some slight degradation is shown ([2]; AB Red stored at 8° C.): > 420 days
- storage time after which some slight degradation is shown ([2]; AB Red stored at 21-25° C.): > 390 days
- Stability of Plant-Derived Cannabinoid Compounds in AB White, 8° C. ([3]; AB White stored at 8° C., 0 days): 28.5 µg/mL
- Stability of Plant-Derived Cannabinoid Compounds in AB White, 8° C. ([3]; AB White stored at 8° C., 1 days): 27.65 µg/mL
- Stability of Plant-Derived Cannabinoid Compounds in AB White, 8° C. ([3]; AB White stored at 8° C., 2 days): 27.67 µg/mL
- Stability of Plant-Derived Cannabinoid Compounds in AB White, 8° C. ([3]; AB White stored at 8° C., 3 days): 27.96 µg/mL
- Stability of Plant-Derived Cannabinoid Compounds in AB White, 8° C. ([3]; AB White stored at 8° C., 5 days): 28.61 µg/mL
- Stability of Plant-Derived Cannabinoid Compounds in AB White, 8° C. ([3]; AB White stored at 8° C., 8 days): 28.47 µg/mL
- Stability of Plant-Derived Cannabinoid Compounds in AB White, 8° C. ([3]; AB White stored at 8° C., 9 days): 28.44 µg/mL
- Stability of Plant-Derived Cannabinoid Compounds in AB White, 8° C. ([3]; AB White stored at 8° C., 10 days): 27.87 µg/mL
- Stability of Plant-Derived Cannabinoid Compounds in AB White, 8° C. ([3]; AB White stored at 8° C., 11 days): 28.13 µg/mL
- Stability of Plant-Derived Cannabinoid Compounds in AB White, 8° C. ([3]; AB White stored at 8° C., 12 days): 28.10 µg/mL
- Stability of Plant-Derived Cannabinoid Compounds in AB White, 8° C. ([3]; AB White stored at 8° C., 15 days): 27.99 µg/mL
- Stability of Plant-Derived Cannabinoid Compounds in AB White, 8° C. ([3]; AB White stored at 8° C., 16 days): 28.04 µg/mL
- Stability of Plant-Derived Cannabinoid Compounds in AB White, 8° C. ([3]; AB White stored at 8° C., 17 days): 27.84 µg/mL
- Stability of Plant-Derived Cannabinoid Compounds in AB White, 8° C. ([3]; AB White stored at 8° C., 18 days): 27.87 µg/mL
- Stability of Plant-Derived Cannabinoid Compounds in AB White, 8° C. ([3]; AB White stored at 8° C., 19 days): 28.36 µg/mL
- Stability of Plant-Derived Cannabinoid Compounds in AB White, 8° C. ([3]; AB White stored at 8° C., 22 days): 28.50 µg/mL
- Stability of Plant-Derived Cannabinoid Compounds in AB White, 8° C. ([3]; AB White stored at 8° C., 23 days): 27.67 µg/mL
- Stability of Plant-Derived Cannabinoid Compounds in AB White, 8° C. ([3]; AB White stored at 8° C., 24 days): 28.44 µg/mL
- Stability of Plant-Derived Cannabinoid Compounds in AB White, 8° C. ([3]; AB White stored at 8° C., 25 days): 27.65 µg/mL
- Stability of Plant-Derived Cannabinoid Compounds in AB White, 8° C. ([3]; AB White stored at 8° C., 26 days): 27.73 µg/mL
- Stability of Plant-Derived Cannabinoid Compounds in AB White, 8° C. ([3]; AB White stored at 8° C., 29 days): 28.24 µg/mL
- Stability of Plant-Derived Cannabinoid Compounds in AB White, 8° C. ([3]; AB White stored at 8° C., 30 days): 27.93 µg/mL
- Stability of Plant-Derived Cannabinoid Compounds in AB White, 8° C. ([3]; AB White stored at 8° C., 60 days): 27.73 µg/mL
- Stability of Plant-Derived Cannabinoid Compounds in AB White, 8° C. ([3]; AB White stored at 8° C., 90 days): 27.87 µg/mL
- Stability of Plant-Derived Cannabinoid Compounds in AB White, 8° C. ([3]; AB White stored at 8° C., 120 days): 27.39 µg/mL
- Stability of Plant-Derived Cannabinoid Compounds in AB White, 8° C. ([3]; AB White stored at 8° C., 150 days): 28.59 µg/mL
- Stability of Plant-Derived Cannabinoid Compounds in AB White, 8° C. ([3]; AB White stored at 8° C., 180 days): 27.59 µg/mL
- Stability of Plant-Derived Cannabinoid Compounds in AB White, 8° C. ([3]; AB White stored at 8° C., 210 days): 27.76 µg/mL
- Stability of Plant-Derived Cannabinoid Compounds in AB White, 8° C. ([3]; AB White stored at 8° C., 240 days): 27.79 µg/mL
- Stability of Plant-Derived Cannabinoid Compounds in AB White, 8° C. ([3]; AB White stored at 8° C., 270 days): 28.07 µg/mL
- Stability of Plant-Derived Cannabinoid Compounds in AB White, 8° C. ([3]; AB White stored at 8° C., 300 days): 27.96 µg/mL
- Stability of Plant-Derived Cannabinoid Compounds in AB White, 8° C. ([3]; AB White stored at 8° C., 330 days): 27.33 µg/mL
- Stability of Plant-Derived Cannabinoid Compounds in AB White, 8° C. ([3]; AB White stored at 8° C., 360 days): 27.79 µg/mL
- Stability of Plant-Derived Cannabinoid Compounds in AB White, 8° C. ([3]; AB White stored at 8° C., 390 days): 27.50 µg/mL
- Stability of Plant-Derived Cannabinoid Compounds in AB White, 8° C. ([3]; AB White stored at 8° C., 420 days): 27.50 µg/mL
- Stability of Plant-Derived Cannabinoid Compounds in AB White, 8° C. ([3]; AB White stored at 8° C., 480 days): 27.13 µg/mL
- Stability of Plant-Derived Cannabinoid Compounds in AB White, 8° C. ([3]; AB White stored at 8° C., 510 days): 26.48 µg/mL
- Stability of Plant-Derived Cannabinoid Compounds in AB White, 8° C. ([3]; AB White stored at 8° C., 540 days): 26.51 µg/mL
- Stability of Plant-Derived Cannabinoid Compounds in AB White, 8° C. ([3]; AB White stored at 8° C., 570 days): 26.22 µg/mL
- storage time after which some slight degradation is shown ([3]; AB White stored at 8° C.): > 480 days
- storage time after which some slight degradation is shown ([3]; AB White stored at 21-25° C.): > 390 days

From patent US20260130395A1, “Water Dispersible Botanical Compositions” (Aquila Black Limited, priority 2021, published 2026)
